A short description of series [1]: Solubility in culture medium (nephelometry). It counts as physicochemical. The procedure: Solubility: The test compounds were prepared in DMSO and the appropriate amounts were then added to complete medium containing 10% bovine serum […] at 37° C. The samples were evaluated using a light scattering technique and a Nephaloskan instrument.
Solubility Assay: The test compounds were prepared in DMSO and the appropriate amounts were then added to complete medium containing 10% bovine serum at 37° C. The samples were evaluated using a light scattering technique and a Nephaloskan instrument.

Series [2] can be described thus: Intracellular total glutathione (GSH). It counts as cell-based, rat. Particulars: rat. The procedure:
(§1) One test compound (Compound A) was received as dry powder and evaluated for potential cytotoxicity in a battery of in vitro assays. The compound was tested using both rat cardiomyocytes (CM) from rat neonates and a rat hepatoma (H4IIE) cell line. […] The cell supernatant or the cells themselves were harvested for biochemical analysis. General cytotoxicity was evaluated by monitoring membrane integrity, mitochondrial function, cell proliferation, oxidative stress, and apoptosis. In addition, interaction with P-glycoprotein (PgP) on H4IIE cells and solubility of the test compound were also assessed. The means of each exposure group (n=3-7) were calculated for each assay performed.
(§2) Experimental Protocol: The test compound was provided and stored at 4° C. until needed. Dosing solutions were prepared in complete culture medium. The rat hepatoma (H4IIE) cell line was used as the test system.

The nature of series [3]: Intracellular ATP levels. The series is classed as cell-based, rat. On the procedure:
as §1
Intracellular ATP Levels: Cellular Adenosine triphosphate (ATP) was determined with an assay based on a reaction between ATP+D-luciferin+oxygen catalyzed by luciferase to yield Oxyluciferin+AMP+PPi+CO2+light. The emitted light is proportional to the amount of ATP present. […] In addition, a unique cell lysis reagent inhibits endogenous ATPases and therefore stabilizes cellular ATP by preventing its degradation to ADP. ATP is present in all-living cells and declines rapidly upon cell death. In addition, this assay in combination with the MTT assay provides an indicator of mitochondrial activity and energy status of the cell.
Plates were analyzed immediately or stored at −20° C. until needed. On the day of analysis, the plates were thawed and calibration curve prepared with ATP in the same liquid matrix as samples. ATP was quantified by adding ATP substrate solution and then reading luminescence on a Packard Fusion Luminescence or equivalent plate reader.
Intracellular ATP Levels: ATP levels in treated cells could be determined by using the regression coefficients obtained from the linear regression analysis of the calibration curve. Thus, values could be expressed as pmoles ATP/million cells. Background corrected luminescence was used to determine percent change relative to controls by dividing treated values by control values and multiplying by 100.

Series [4] is described as follows: MTT reduction. The series is classed as cell-based, rat. The procedure:
as §1
(§3) Tetrazolium Dye Reduction: 3-[4,5-dimethylthiazol-2-yl]
A general note: Tetrazolium assays rely on reduction of a dye to a coloured formazan, in cell work by metabolically active cells.

The nature of series [5]: MemTox membrane leakage (AK / α-GST). It counts as cell-based, rat. On the procedure: as §1
Membrane Leakage (α-Glutathione S-transferase and/or Adenylate Kinase): The presence of Adenylate Kinase (AK) or α-Glutathione S-transferase (α-GST), both enzyme leakage markers, was measured in the culture medium using an activity assay for Adenylate Kinase and/or an ELISA assay for α-GST. At the end of the exposure period, the medium covering the cells in each well was removed and placed into new 96-well plates with appropriate labeling. […] Luminescence (AK) values were measured with a Packard Fusion or equivalent plate reader, and absorbance (α-GST) values were measured with a Packard SpectraCount™ or equivalent reader at 450 nm and reference absorbance at 650 nm.
Membrane Leakage (α-Glutathione S-transferase and/or Adenylate Kinase): Leakage of Adenylate Kinase or α-GST from the cell into the culture medium was determined by collecting the culture medium at the end of the exposure period. Thus, the values measured represent total enzyme leakage lost over the exposure period. The control for 100% dead or maximum enzyme release was based on cells treated with 1 mM digitonin at the time of dosing. Percent dead cells relative to digitonin treated cells was determined and then subtracted from 100% to yield the percent live cells.

Series [6] in a line: MTT reduction. It counts as cell-based, rat. To be noted: rat. On the procedure: as §1, §2, §3
Series [7] in a line: Intracellular total glutathione (GSH). It counts as cell-based, rat. To be noted: rat. The procedure:
as §1
This is another data set of the same source.

[8] abbreviates: dosing medium with 20% serum, 37° C., CM 24 HR, read-out: Highest Soluble Concentration Tested.
Where [9] appears, read: dosing medium with 20% serum, 37° C., H4IIE 24 HR, read-out: Highest Soluble Concentration Tested.
Where [10] appears, read: 37 °C, plasma or biological fluid, kinetic from dmso stock, dosing medium with 20% serum, 37° C., CM 24 HR, read-out: Highest Soluble Concentration Tested.
The mark [11] stands for this setting: 37 °C, plasma or biological fluid, kinetic from dmso stock, dosing medium with 20% serum, 37° C., H4IIE 24 HR, read-out: Highest Soluble Concentration Tested.

SMILES strings stand for the structures. Values after ≈ are worked out from the molar mass of the structure shown. Where two headings read alike, the source gives them in different places.

Consider `Nc1nc(NC2CC2)c2ncn([C@H]3C=C[C@@H](CO)C3)c2n1` [ABACAVIR, abacavir], for which the solubility in series [1] (setting [8]) and in series [1] (setting [9]) was 300 µM (≈ 85.9 µg/mL) in each case. The CC50 at 24 h in series [2] (Total GSH TC50) is 213 µM; in series [3] (rat) it was 165 µM; in series [4] (rat) it was greater than 300 µM; in series [5] (rat), greater than 300 µM; in series [6] (MTT TC50) it was greater than 300 µM; in series [7] it was greater than 300 µM.
For `CC[C@@]1(O)C(=O)OCc2c1cc1n(c2=O)Cc2cc3ccccc3nc2-1` [CAMPTOTHECIN, Camptothecin], the solubility stood at 50 µM (≈ 17.4 µg/mL) in series [1] (culture medium with 20% serum, 37 °C, plasma or biological fluid, kinetic from dmso stock, culture media containing 20% serum, NRK 6 HR, read-out: Highest Soluble Concentration); 10 µM (≈ 3.48 µg/mL) in series [1] (dosing (complete culture) medium with 20% serum, plasma or biological fluid, kinetic from dmso stock, dosing medium with 20% serum, 37° C., CM 24 HR, read-out: Highest Soluble Concentration Tested); 10 µM (≈ 3.48 µg/mL) in series [1] (dosing medium (complete culture medium with serum), plasma or biological fluid, kinetic from dmso stock, dosing medium, 37° C., SK-MEL28 24 HR, read-out: Highest Soluble Concentration); 10 µM (≈ 3.48 µg/mL) in series [1] (plasma or biological fluid, kinetic from dmso stock, dosing medium, 37° C., HUVEC 24 HR, read-out: Highest Soluble Concentration). For the same compound, the CC50 at 24 h was 3 µM in series [2] (H4IIE rat hepatoma cells, H4IIE, 24 HR, read-out: Total GSH TC50); greater than 300 µM in series [3] (neonatal rat cardiomyocytes, rat cardiomyocytes (CM), 24 HR exposure, read-out: ATP TC50); greater than 300 µM in series [4] (neonatal rat cardiomyocytes, rat cardiomyocytes (CM), 24 HR exposure, read-out: MTT TC50); greater than 300 µM in series [5] (neonatal rat cardiomyocytes, rat cardiomyocytes (CM), 24 HR exposure, read-out: MemTox TC50); 1 µM in series [6] (H4IIE rat hepatoma cells, H4IIE, 24 HR exposure, read-out: MTT TC50); greater than 300 µM in series [7] (neonatal rat cardiomyocytes, CM, 24 HR, read-out: Total GSH TC50).
Turning to `Cc1cccc(C)c1OCC(=O)N[C@@H](Cc1ccccc1)[C@@H](O)C[C@H](Cc1ccccc1)NC(=O)[C@H](C(C)C)N1CCCNC1=O` [LOPINAVIR, lopinavir], the solubility in series [1] (setting [10]) and in series [1] (setting [11]) was 50 µM (≈ 31.4 µg/mL) throughout. In addition, the CC50 at 24 h turned out to be 99 µM in series [2] (Total GSH TC50); 72 µM in series [3] (rat); 72 µM in series [4] (rat); 76 µM in series [5] (rat); 184 µM in series [6] (MTT TC50); 69 µM in series [7].
Consider `COc1cccc2c1C(=O)c1c(O)c3c(c(O)c1C2=O)C[C@@](O)(C(C)=O)C[C@@H]3O[C@H]1C[C@H](N)[C@H](O)[C@H](C)O1` [DAUNORUBICIN, daunorubicin], for which the solubility in series [1] (plasma or biological fluid, kinetic from dmso stock, dosing medium with 20% serum, 37° C., CM 24 HR, read-out: Highest Soluble Concentration Tested) is 100 µM (≈ 52.8 µg/mL). The CC50 at 24 h in series [2] was 16 µM; in series [3] (rat), 9 µM; in series [4] (rat) it was 6 µM; in series [5] (rat), 4 µM; in series [6] it was 14 µM; in series [7], less than 1 µM.
As to `CC(C)Nc1cccnc1N1CCN(C(=O)c2cc3cc(NS(C)(=O)=O)ccc3[nH]2)CC1` [DELAVIRDINE, delavirdine], the solubility in series [1] (setting [8]) and in series [1] (setting [9]) was 300 µM (≈ 137 µg/mL) each time. In addition, the CC50 at 24 h was 96 µM in series [2] (Total GSH TC50); 166 µM in series [3] (rat); 252 µM in series [4] (rat); 239 µM in series [5] (rat); 218 µM in series [6] (MTT TC50); greater than 300 µM in series [7].
As for `O=C1Nc2ccc(Cl)cc2[C@@](C#CC2CC2)(C(F)(F)F)O1` [EFAVIRENZ, efavirenz], the solubility in series [1] (setting [8]) and in series [1] (setting [9]) was 300 µM (≈ 94.7 µg/mL) in each case. Moreover, the CC50 at 24 h in series [2] (Total GSH TC50) is 170 µM; in series [3] (rat), 75 µM; in series [4] (rat), 79 µM; in series [5] (rat) it was 69 µM; in series [6] (MTT TC50), 161 µM; in series [7] it was 83 µM.
Turning to `C=C(C)[C@H]1Cc2c(ccc3c2O[C@@H]2COc4cc(OC)c(OC)cc4[C@@H]2C3=O)O1` [ROTENONE, Rotenone], the solubility came to 10 µM (≈ 3.94 µg/mL) in series [1] (37 °C, plasma or biological fluid, kinetic from dmso stock, culture media containing 20% serum, NRK 6 HR, read-out: Highest Soluble Concentration); 10 µM (≈ 3.94 µg/mL) in series [1] (37 °C, plasma or biological fluid, kinetic from dmso stock, culture media containing 20% serum, NRK 24 HR, read-out: Highest Soluble Concentration); 100 µM (≈ 39.4 µg/mL) in series [1] (setting [10]); 100 µM (≈ 39.4 µg/mL) in series [1] (setting [11]); 10 µM (≈ 3.94 µg/mL) in series [1] (37 °C, plasma or biological fluid, kinetic from dmso stock, dosing medium, 37° C., C32 24 HR, read-out: Highest Soluble Concentration); 10 µM (≈ 3.94 µg/mL) in series [1] (37 °C, plasma or biological fluid, kinetic from dmso stock, dosing medium, 37° C., HUVEC 24 HR, read-out: Highest Soluble Concentration). Moreover, the solubility in series [1] (37 °C, plasma or biological fluid, kinetic from dmso stock, dosing medium, 37° C., NHEM 24 HR, read-out: Highest Soluble Concentration) turned out to be 100 µM (≈ 39.4 µg/mL); in series [1] (37 °C, plasma or biological fluid, kinetic from dmso stock, dosing medium, 37° C., SK-MEL28 24 HR, run #2, read-out: Highest Soluble Concentration), 100 µM (≈ 39.4 µg/mL); in series [1] (37 °C, plasma or biological fluid, kinetic from dmso stock, dosing medium, 37° C., SK-MEL28 24 HR, read-out: Highest Soluble Concentration) it was 10 µM (≈ 3.94 µg/mL); in series [1] (37 °C, plasma or biological fluid, kinetic from dmso stock, dosing medium, 37° C., SK-MEL28 72 HR, run #2, read-out: Highest Soluble Concentration), 100 µM (≈ 39.4 µg/mL); in series [1] (37 °C, plasma or biological fluid, kinetic from dmso stock, dosing medium, 37° C., human hepatocytes 24 HR, read-out: Highest Soluble Concentration), 10 µM (≈ 3.94 µg/mL). The CC50 at 24 h in series [2] (H4IIE, 24 HR, read-out: Total GSH TC50) was determined as 0.05 µM; in series [3] (rat cardiomyocytes (CM), 24 HR exposure, read-out: ATP TC50), 8 µM; in series [4] (rat cardiomyocytes (CM), 24 HR exposure, read-out: MTT TC50), 33 µM; in series [5] (rat cardiomyocytes (CM), 24 HR exposure, read-out: MemTox TC50) it was 56 µM; in series [6] (H4IIE, 24 HR exposure, read-out: MTT TC50) it was 0.07 µM; in series [7] (CM, 24 HR, read-out: Total GSH TC50), 7 µM.
